What was measured:
[1] = test system: ATQ-R5 (cytb F267V, parent 3D7); assay: Cross-resistance EC50 assay, ATQ-R5; format: cell-based, Plasmodium falciparum; conditions: for EC50: Plasmodium falciparum, 3D7, SYBR green 72 hour assay, asynchronized parasites, 96-well or 1536-well format, ATQ-R5
Description: To evaluate potential overlapping activity against known antimalarial drug targets, we performed dose-response studies with each compound against our assembled set of drug-resistant lines and their corresponding parents, in an asexual blood stage proliferation assay (Table 1). Comparisons were made to the drug-sensitive strain 3D7 when a parent was unavailable (TM90C2A, W2 and Dd2). As laboratories conducted EC50 assays with different strains and protocols, all comparisons were made between assays from the same laboratory and under the same assay conditions. Compounds displaying >5-fold EC50 shifts relative to the parent or sensitive strain were flagged as having potentially non-novel targets. Average fold shifts per strain ranged from 0.82 to 2.34, with a median of 1.23 indicating there was not common resistance to any one resistant clone. No resistance patterns were observed when classifying the compounds based on chemical structure, but this was not surprising given the diversity of compounds chosen. On the other hand, given that these confirmed compounds were derived from larger unconfirmed hit lists to which some filtration criteria may have been applied (for example, elimination of obvious dihydrofolate reductase inhibitors[32]), some[10][11][12][13] pre-existing bias may exist in the set. […]
Alternatively, a SYBR Green-based proliferation approach was used for the 72-h assay, as previously described. Briefly, a culture of either synchronized or asynchronous parasitized RBCs (0.3% parasitemia and 4% haematocrit) in screening medium (identical to supplemented medium above except no serum was added) was exposed to serial drug dilutions. Plates were incubated at 37 °C and gassed with 93% N2, 4% CO2 and 3% O2 for 72 h. Following incubation, 10 × SYBR Green I (Invitrogen; supplied in 10,000 × concentration) in lysis buffer ([…], 5 mM EDTA, 0.16% Saponin wt per vol and 1.6% Triton X vol per vol) was added to the wells and the plates were incubated overnight at room temperature before plate reading. EC50 assays were repeated three times, taking the average EC50 value from each assay set, and removing any outliers using a single iteration of Grubbs' test, eliminating values with z-scores above the critical z-value (α=0.05). The raw EC50 values for synchronized parasites assayed in a 384-well format are listed in Supplementary Data 4. The raw EC50 values for asynchronous parasites assayed in a 96 or 1536-well format are listed in Supplementary Data 5.
EC50 values for each strain were compared with those of the corresponding parent strain to determine fold-shift changes and identify resistance. To minimize the cause variance between assays, all comparisons were conducted between strains assayed under identical conditions. A one-way ANOVA followed by a Dunnet's post-test was conducted in GraphPad Prism to identify significant changes between the parent and resistant strain.

P. falciparum = assay: Rate of killing (parasite viability) assay; format: cell-based, Plasmodium falciparum; conditions: profile compared with chloroquine, pyrimethamine, atovaquone; 48 h treatment
Protocol: To identify whether selection success could be predicted by compound speed of action, and to gain a greater insight into the potential mechanisms of action, assays were performed to test the killing rate (Supplementary Data 1)[33]. To quantify the killing rate, viability time-course profiles for each compound were compared with antimalarials known to have fast (chloroquine), moderate (pyrimethamine) or slow (atovaquone) rate of action. These rates were then compared with other compound characteristics, including cross-resistance profile, selection success, potency and structural characteristics to identify any possible trends. […] One compound's rate of killing, MMV666080, was unidentifiable due to compound availability. No correlation was seen between compound structure and speed of action. Additionally, there was no correlation found between killing rate and compound potency against 3D7, nor between potency and selection success (Supplementary Fig. 2).
Rate of killing was determined for each compound following a previously described methodology, which uses the invasion of fresh erythrocytes as surrogate of parasite viability. Briefly, parasites were treated with compounds for 48 h. Compound was washed out and fresh-labelled erythrocytes added to the treated parasites. Double stained erythrocytes (RBC label plus parasite DNA label) were quantified and per cent of survival determined.

SMILES	EC50 [1] [µM]	Killing Rate (P. falciparum)	resistance in ATQ-R5 vs parent ([1]; EC50 fold-shift under the threshold (5-fold))
COc1ccc(NC(=O)N2CCCCN3[C@H](CN)[C@H](c4ccc(C#Cc5ccccc5)cc4)[C@@H]3C2)cc1 [BRD1095]	0.002	PYR/CQ (moderate)	–
CCN(CC)CCn1c(=N)n(CC(O)c2ccc(Cl)c(Cl)c2)c2ccccc21.Cl (stereo not drawn) [MMV000248]	0.191	CQ (fast)	–
CCOc1cc2c(cc1OCC)C(c1cc(Cl)ccc1O)NCC2 (stereo not drawn) [MMV000478]	0.733	CQ (fast)	–
CCCOCc1cc(CN2CCN(c3cccc(Cl)c3)CC2)c(O)c2ncccc12 [MMV000787]	1.43	CQ (fast)	–
CN1CCN(c2ccc(Nc3c4ccccc4nc4ccccc34)cc2)CC1 [MMV006172]	0.181	CQ (fast)	–
CCCN(CCC)CC(O)COc1ccccc1C(=O)Nc1ccccc1 (stereo not drawn) [MMV006455]	0.548	CQ (fast)	–
COc1cc2cc(C(=O)Nc3ccccc3)c(N)nc2cc1OC [MMV006767]	2.87	PYR (moderate)	–
Cc1cc(Nc2ccc(OCc3ccccc3)cc2)nc2cc(O)ccc12 [MMV007181]	0.088	PYR/CQ (moderate)	–
Brc1ccc(Nc2nc3ccccc3nc2Nc2ccc(Br)cc2)cc1 [MMV007224]	0.719	ATQ (slow)	–
Cc1ccc(Cn2c(N3CCC(C(=O)NCc4cccs4)CC3)nc3ccccc32)cc1 [MMV007564]	1.33	PYR/CQ (moderate)	–
Cc1c(C)n(Cc2ccc(F)cc2)c2ccc(C(=O)NCc3ccco3)cc12 [MMV008149]	1.58	ATQ (slow)	–
OC(CNC1CCCCC1)Cn1c2ccccc2c2ccccc21 (stereo not drawn) [MMV009063]	0.652	CQ (fast)	–
CCN(CC)S(=O)(=O)c1ccc(-c2csc(Nc3ccc(C)c(C)c3)n2)cc1 [MMV009108]	2.35	ATQ (slow)	–
COC(=O)c1ccc(C2C3=C(O)CC(c4ccc(F)cc4)CC3=Nc3ccccc3N2C(=O)c2ccccc2)cc1 (stereo not drawn) [MMV011438]	0.34	ATQ (slow)	–
Nc1ccc(-c2nc3cc(Oc4ccc(Oc5ccc6[nH]c(-c7ccc(N)cc7)nc6c5)cc4)ccc3[nH]2)cc1 [MMV011895]	0.525	CQ (fast)	–
COCCNCC(O)Cn1c2ccc(Cl)cc2c2cc(Cl)ccc21 (stereo not drawn) [MMV019017]	0.842	CQ (fast)	–
COc1ccccc1CNC(=O)CCn1c(=O)[nH]c2ccsc2c1=O [MMV019066]	0.023	ATQ (slow)	Statistically significant resistance
Cl.c1ccc2c(NCCCCCCNc3c4c(nc5ccccc35)CCCC4)c3c(nc2c1)CCCC3 [MMV019555]	0.086	CQ (fast)	–
COc1ccc(N2CCN(C(CNC(=O)C3CCCCC3)c3ccc4c(c3)OCO4)CC2)cc1 (stereo not drawn) [MMV019662]	0.596	ATQ (slow)	–
COc1ccc(-c2nc(NC(=O)Cc3ccc4c(c3)OCCO4)sc2C)cc1 [MMV019719]	0.213	CQ (fast)	–
Cc1ccc(Oc2ncccc2C(=O)Cc2cccc3cccnc23)c(C)c1 [MMV020746]	1.49	ATQ (slow)	–

SMILES	EC50 [1] [µM]	Killing Rate (P. falciparum)	resistance in ATQ-R5 vs parent ([1]; EC50 fold-shift under the threshold (5-fold))
COc1cc(-c2nc(-c3ccccc3)c(-c3ccccc3)[nH]2)cc(OC)c1O [MMV020750]	0.873	PYR (moderate)	–
CCCCCCCN(Cc1ccc(OC(C)(C)C(=O)OCC)cc1)C(=O)Nc1ccc(Cl)cc1OCC [MMV021735]	0.062	ATQ (slow)	–
CN(C)Cc1ccc(-c2cc3c(-c4ccc(CN(C)C)cc4)ccnc3[nH]2)cc1.O=C(O)C(F)(F)F [MMV022224]	0.358	CQ (fast)	–
Nc1ncc(-c2cn[nH]c2)cc1-c1nc2ccc(F)cc2[nH]1 [MMV023367]	1.53	CQ (fast)	–
CN(C)S(=O)(=O)c1cc(-c2ccc3nccc(-c4cccc(S(N)(=O)=O)c4)c3c2)cnc1N [MMV024038]	0.878	PYR/CQ (moderate)	–
Cc1ccc(S(=O)(=O)n2cc(-c3ccnc(N)c3)c3cc(Br)cnc32)cc1 [MMV024114]	1.72	PYR/CQ (moderate)	–
CNCc1ccc2nc(-c3coc(Cc4cc(Cl)ccc4OCC(C)C)n3)[nH]c2c1.Cl.Cl [MMV026596]	0.376	PYR (moderate)	–
COc1cc(-c2nc(-c3ccccc3)c(-c3ccccc3)[nH]2)ccc1OCCN(C)C [MMV027496]	0.302	PYR/CQ (moderate)	–
Cc1nc2ccc3ccc(CNc4ccc(C(=O)CC(CCC(=O)O)C(=O)O)cc4)cc3c2c(=O)[nH]1.Cl (stereo not drawn) [MMV027634]	0.13	ATQ (slow)	–
CC(C)c1cccc(C(NC(=O)C2Cc3ccccc3CN2C(=O)c2cccc(N3CCOCC3)c2)C2CCCC2)c1 (stereo not drawn) [MMV028038]	0.839	ATQ (slow)	–
CN(C)CCCN(C)C(=O)C1Cc2cc(-c3ccccc3)ccc2N1S(=O)(=O)c1ccccc1 (stereo not drawn) [MMV028895]	0.879	ATQ (slow)	–
O=C(NCC(CCCN1CCC(c2c[nH]c3ccccc23)CC1)c1ccccc1)Nc1ccc(Cl)c(Cl)c1 (stereo not drawn) [MMV029272]	4.49	PYR (moderate)	–
CC(C)(C)OC(=O)N1CCN(c2ccccc2NC(=O)c2cccc(C(F)(F)F)c2Oc2ccc(F)cc2)CC1 [MMV030666]	0.251	PYR (moderate)	–
CC(NCc1ccccc1)c1cc(Cl)ccc1O (stereo not drawn) [MMV665789]	0.29	PYR (moderate)	–
FC(F)(F)c1cccc(Nc2nc3ccccc3nc2Nc2cccc(C(F)(F)F)c2)c1 [MMV665794]	0.381	PYR (moderate)	–
O=C(Nc1ccc(Cl)c(Cl)c1)Nc1ccc(Cl)c(Cl)c1 [MMV665852]	2.71	CQ (fast)	–
OC(CNC1CCCCC1)Cn1c2ccc(I)cc2c2cc(I)ccc21 (stereo not drawn) [MMV665882]	0.026	ATQ (slow)	–
O=C(Nc1ccccc1O)c1ccc(Oc2cccc(C(=O)Nc3ccccc3O)c2)cc1 [MMV665888]	0.989	PYR (moderate)	–
COc1ccc(C(=O)C2CC2c2ccc(Cl)cc2)cc1 (stereo not drawn) [MMV665924]	3.63	CQ (fast)	–
CCC(C)NCC(O)(c1ccc(Cl)cc1)c1ccc(Cl)cc1 (stereo not drawn) [MMV665928]	0.074	CQ (fast)	–
O=C(NC(c1ccccc1)c1ccc2cccnc2c1O)c1ccccc1 (stereo not drawn) [MMV666080]	0.756	–	–
